Values quoted from earlier work in patent US9961900B2, “Herbicide formulations” (priority 2012, dated 2018).
In brackets after ≈: the same amount, converted by molar mass. Like-named read-outs stand apart in the source and are kept apart here. One block for each compound: values may come before it.

Tests used:
[1] = for Aqueous photolysis DT50: pH 7
[2] = not given; remark: listed apart in the source
[3] = not given; remark: listed apart in the source

Compound: COC(=O)[C@@H](C)Oc1ccc(Oc2ncc(C(F)(F)F)cc2Cl)cc1 [haloxyfop-p-methyl, methyl (R)-2-{4-[3-chloro-5-(trifluoromethyl)-2-pyridyloxy]phenoxy}propionate]
Solubility in acetone (25° C.): > 500 mg/mL
Solubility in dichloromethane (25° C.): > 500 mg/mL
Solubility in ethyl acetate (25° C.): > 500 mg/mL
Solubility in methanol (25° C.): 76 mg/mL (≈ 202 mM)
Solubility in n-hexane (25° C.): 11 mg/mL (≈ 29.3 mM)
Solubility in toluene (25° C.): > 500 mg/mL
Solubility in water (pH 5, 25° C.): 6.9 mg/L (≈ 0.0184 mM)
Solubility in water (pH 7, 25° C.): 7.9 mg/L at pH 7 (all at 25° C.)
Solubility in water (unbuffered, 25° C.): 9.1 mg/L (≈ 0.0242 mM)
Aqueous photolysis DT50 [1]: Aqueous photolysis DT50 at pH 7: 20 days^++
log P (octanol-water) ([2]; 20° C.): log P = 4.0
DT50 ([3]; natural water, 20° C.): 3 days
DT50 ([3]; pH 4, 20° C.): stable
DT50 ([3]; pH 7, 20° C.): 43 days
DT50 ([3]; pH 9, 20° C.): 0.63 d (pH 9) (all at 20° C.) ^+

Compound: COc1ncc(F)c2nc(S(=O)(=O)Nc3c(F)cccc3F)nn12 [florasulam]
Solubility in acetone: Acetone: 123,000 mg/L
Solubility in water: Water: 6360 mg/L
Photolytic stability DT50 ([1]; at pH 7): DT50: 156 d
log P (octanol-water) [2]: log P: −1.22
Aqueous hydrolysis ([3]; at pH 7 and 20° C.): Stable

Solubility in methanol (20° C.): methanol 43 g/L (all at 20° C.) ^+
Solubility in water (pH 5.8, 25° C.): Water: 0.7 mg/L at pH 5.8 (25° C.)
log P (octanol-water) [2]: log P = 4.58 ^+
Hydrolytic DT50 ([3]; pH 4, 25° C.): 2.8 days
Hydrolytic DT50 ([3]; pH 5, 25° C.): 19.2 days
Hydrolytic DT50 ([3]; pH 7, 25° C.): 23.2 days
Hydrolytic DT50 ([3]; pH 9, 25° C.): 7), 0.6 d (pH 9) (all at 25° C.) ^+
Compound: CCOC(=O)[C@@H](C)Oc1ccc(Oc2nc3ccc(Cl)cc3o2)cc1 [fenoxaprop-p-ethyl, ethyl (R)-2-[4-(6-chloro-1,3-benzoxazol-2-yloxy)phenoxy]propionate]
Solubility in acetone (20° C.): In acetone, ethyl acetate, toluene, >200 g/L;
Solubility in ethyl acetate (20° C.): In acetone, ethyl acetate, toluene, >200 g/L;
Aqueous photolysis DT50 [1]: Aqueous photolysis DT50 at pH 7: 105 days
